In paper PMC8002823, “Synthesis and Structure–Activity Relationships of Aristoyagonine Derivatives as Brd4 Bromodomain Inhibitors with X-ray Co-Crystal Research” (Molecules, 2021):

Experiments:
c-MYC = test: Western blot of c-MYC level in NALM6 cells; type: cell-based; conditions: 18 h treatment
Description: For immunoblotting, cells were washed in PBS, lysed in 1× sample buffer (50 mmol/L Tris-HCl (pH 6.8), 10% glycerol, 2% SDS, and 3% β-mercaptoethanol), and boiled for 10 min. Lysates were subjected to SDS-PAGE followed by blotting with the indicated antibodies and detection by western blotting substrate ECL reagent (Thermo Fisher Scientific, Waltham, MA, USA). Images were produced using a SensiQ-2000 (Lugen Sci Co., Seoul, KOREA). The following antibodies were obtained from Cell Signaling Technology (Danvers, MA, USA): c-Myc (catalog no. 5605). Tubulin antibody (catalog no. T6199) was purchased from Sigma-Aldrich. HRP-conjugated anti-mouse (catalog no. NCI1430KR), and HRP-conjugated anti-rabbit (catalog no. NCI1460KR) antibodies were obtained from Thermo Scientific.

Ty82 cells = test: Cell cytotoxic assay in Ty82 cells; type: cell-based; conditions: Homo sapiens; Ty82 cell cytotoxic activity, 72 h
Description: (§1) For the viability experiments, Ty82 cells were seeded in 96-well plates at 30% confluency and exposed to chemicals the next day. After 72 h, WST-1 reagent was added, and absorbance at 450 nm was measured by using a Spectramax spectrophotometer (Molecular Devices, San Jose, CA, USA) in accordance with the manufacturer’s instructions. The CC50 values were calculated by using GraphPad Prism version 5 for Windows. The curves were fitted using a nonlinear regression model with a log (inhibitor) versus response formula.

Brd4 bromodomain [1] = molecular target: T1, Brd4 bromodomain (Homo sapiens, UniProt O60885); test: Alpha-screen enzyme assay (bromodomain binding to acetylated histone peptide); conditions: for IC50: inhibition of bromodomain binding activity, calculated with Prism6;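 for all read-outs here: AlphaScreen proximity readout pairing streptavidin donor beads with anti-GST acceptor beads, with hits checked against bead interference using a TruHit control kit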
T1 construct: glutathione-S-transferase (GST) and His-tagged bromodomain; made in house
Description: Bromodomain was prepared as previously described. […] Streptavidin-coated donor beads and anti-GST alpha-screen acceptor beads were added under low-light condition. […] The alpha-screen results were confirmed by using alpha-screen TruHit kits (PerkinElmer, USA).

[2] = Cell cytotoxic assay in Ty82 cells; type: cell-based; conditions: human, Ty82 cells; Ty82 cell cytotoxic activity, 72 h
Description: as §1

Brd4 bromodomain [3] = tested on: Brd4 bromodomain; set-up: method as in PMID 29928885; conditions: cited from earlier work

| SMILES | c-MYC level (c-MYC) | CC50 (Ty82 cells) [nM] | melting point [°C] | increase in activity compared with 8ba (Brd4 bromodomain [1]; Brd4 IC50 ratio) [fold] | IC50 (Brd4 bromodomain [1]; alpha-screen assay) [nM] | CC50 at 72 h [2] [nM] | inhibitory activity against Brd4 bromodomain (in words) (Brd4 bromodomain [1]; alpha-screen assay) | inhibition of binding of Brd4 bromodomain to acetylated histone peptide (in words) (Brd4 bromodomain [3]) |
| --- | --- | --- | --- | --- | --- | --- | --- | --- |
| COc1ccc2c(c1)C=C1c3c(ccc(OC)c3O2)C(=O)N1C [Compound 8bc, 5,9-Dimethoxy-1-methylbenzo[6,7]oxepino[4,3,2-cd]isoindol-2(1H)-one] | significantly decreased | 660 | 194 to 196 | 40 | 410 |  |  |  |
| CCOc1ccc2c3c1Oc1ccc(OC)cc1C=C3N(C)C2=O [Compound 8bk, 5-Ethoxy-9-methoxy-1-methylbenzo[6,7]oxepino[4,3,2-cd]isoindol-2(1H)-one] | significantly decreased | 490 | 214 to 216 |  | 860 |  |  |  |
| CCN(CC)c1ccc2c3c1Oc1ccc(OCC(C)C)cc1C=C3N(C)C2=O [Compound 8ca] |  |  | 183 to 185 |  | > 32000 | > 20000 | no inhibitory activity |  |
| COc1ccc2c(c1OC)Oc1c(OC)ccc3c1C(=C2)N(C)C3=O [aristoyagonine] |  |  |  |  |  |  |  | efficiently inhibited |
